Patent US20100324137A1, “LAURIC ARGINATE AS A CONTACT ANTIMICROBIAL” (DIVERSEY, INC., priority 2009, published 2010)
Values joined by “and” are separate entries in the source; they are usually repeats but may differ in a detail not shown here. Equal values may be shown once.

Tested on: E. coli
Experiment: Antimicrobial effectiveness: E. coli contacted with sample for 30 seconds, survivors calculated
Format: cell-based
Settings: 30 seconds contact
Experimental: The antimicrobial effectiveness of the present invention in combination with octenyl succinic acid was tested. In this application, the test organism was E. coli, which was contacted with either the control or the stated sample for 30 seconds, and the survivors were calculated.

Compound | Percent Reduction (25 ppm active) | Survivors (25 ppm active) | Percent Reduction (50 ppm active) | Percent Reduction (75 ppm active) | Survivors (75 ppm active) | Percent Reduction (160 ppm active) | Survivors (160 ppm active) | Percent Reduction (320 ppm active) [%] | Survivors (320 ppm active) | Percent Reduction (480 ppm active) [%] | Survivors (480 ppm active)
CCCCCCCCCCCC(=O)N[C@@H](CCCN=C(N)N)C(=O)OCC [LA, ethyl lauroyl arginate] | 96.494% and 96.299% | 5,400,000 org/ml and 5,700,000 org/ml | 99.851% and 99.926% | 99.979% and 99.975% | 33,000 org/ml and 39,000 org/ml |  |  |  |  |  | 
octenyl succinic acid [OSA] |  |  |  |  |  | 84.351% and 84.805% | 24,100,000 org/ml and 23,400,000 org/ml | 99.999 | 2,000 org/ml and 2,200 org/ml | 99.999 | 1,900 org/ml and 1,920 org/ml
